Consider 1 molecule from patent publication US11149008B2, “Sulfamide derivatives and preparation method and use thereof” (HitGen Ltd., priority 2015, dated 2021).

A value given as a limit tells only on which side of the number the result lay.

The term IC50 denotes the concentration needed to halve the response being measured.

One test addresses T1, HDAC 3 (Homo sapiens, UniProt O15379).
T1 construct: purchased BPS Bioscience #50003
The test can be described thus: Enzyme activity detection of histone deacetylase 3 (fluorogenic substrate deacetylation). The class given is biochemical. Particulars: 0.16 ng/μL HDAC 3, 10 μM substrate; IC50 class. From the text:
(§1) During the deacetylation detection of a substrate, the HDAC inhibition activity of the compound of the present invention was detected.
B: Enzyme Activity Detection of Histone Deacetylase 3 (#50003, BPS Bioscience)
Acetyl on the substrate was removed by the HDAC 3, so that the substrate was activated, and the developing liquid added subsequently could act on the substrate to release the fluorescent group. The size of the fluorescence signal reflected the activity of the HDAC 3. The IC50 detection method for this enzyme was disclosed in Chuping Xu, Elisabetta Soragni Improved Histone Deacetylase Inhibitors as Therapeutics for the Neurdegenerative Disease Friedreich's Ataxia: A New Synthetic Route. The total reaction system (100 μL/well) contained 0.16 ng/μL of HDAC 3, 10 μM of the substrate and the compound in different concentrations. The fluorescence signal was detected online at Ex/Em=360/460. The inhibition effect of the compound was determined from the obtained data, a concentration response curve was obtained by using the inhibition effect and the concentration of the compound, and the value of IC50 was fitted according to a four-parameter model.
(§2) The activities of the compounds prepared in the embodiments against the histone deacetylases 1, 3 and 6 (i.e., HDAC 1, HDAC 3 and HDAC 6) were detected by the above methods, and the test results were shown in Table 2, where the measurements of IC50 of the compounds were classified according to the following description: […]

For the next test, the target named is T2, HDAC 6 (Homo sapiens, UniProt Q9UBN7).
T2 construct: purchased BPS Bioscience #50076
T2 sequence (Q9UBN7 1-1215): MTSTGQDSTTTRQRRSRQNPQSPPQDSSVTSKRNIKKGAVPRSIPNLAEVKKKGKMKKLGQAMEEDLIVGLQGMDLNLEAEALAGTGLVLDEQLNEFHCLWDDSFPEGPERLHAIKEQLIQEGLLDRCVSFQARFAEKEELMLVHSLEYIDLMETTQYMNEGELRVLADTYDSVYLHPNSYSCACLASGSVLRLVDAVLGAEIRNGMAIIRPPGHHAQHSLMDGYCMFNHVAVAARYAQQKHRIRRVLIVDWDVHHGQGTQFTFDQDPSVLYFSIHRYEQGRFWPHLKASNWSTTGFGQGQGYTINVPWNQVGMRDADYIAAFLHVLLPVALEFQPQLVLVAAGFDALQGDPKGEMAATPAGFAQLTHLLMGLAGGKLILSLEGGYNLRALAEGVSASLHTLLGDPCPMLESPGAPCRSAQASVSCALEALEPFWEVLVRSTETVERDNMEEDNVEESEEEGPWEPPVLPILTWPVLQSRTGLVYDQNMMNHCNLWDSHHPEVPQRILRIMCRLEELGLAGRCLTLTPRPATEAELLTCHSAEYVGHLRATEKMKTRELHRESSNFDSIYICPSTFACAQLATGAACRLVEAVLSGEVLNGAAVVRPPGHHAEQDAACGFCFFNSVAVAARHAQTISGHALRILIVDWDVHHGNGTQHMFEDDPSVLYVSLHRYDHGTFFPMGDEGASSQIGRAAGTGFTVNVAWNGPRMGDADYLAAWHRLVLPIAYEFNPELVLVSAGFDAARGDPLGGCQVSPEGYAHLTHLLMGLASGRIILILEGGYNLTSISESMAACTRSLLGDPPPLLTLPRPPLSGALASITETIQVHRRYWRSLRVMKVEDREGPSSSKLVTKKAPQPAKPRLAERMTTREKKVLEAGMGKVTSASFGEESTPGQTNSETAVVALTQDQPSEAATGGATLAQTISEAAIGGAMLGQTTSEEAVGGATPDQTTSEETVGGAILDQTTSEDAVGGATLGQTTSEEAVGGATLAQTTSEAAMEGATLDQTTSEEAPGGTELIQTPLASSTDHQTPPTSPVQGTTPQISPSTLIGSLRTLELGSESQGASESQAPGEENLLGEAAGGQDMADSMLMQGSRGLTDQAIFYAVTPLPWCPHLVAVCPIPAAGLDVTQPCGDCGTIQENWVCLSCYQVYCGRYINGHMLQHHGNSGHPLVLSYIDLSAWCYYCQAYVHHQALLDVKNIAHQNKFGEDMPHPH
Nature of the test: Enzyme activity detection of histone deacetylase 6 (fluorogenic substrate deacetylation). The class given is biochemical. Particulars: 0.35 ng/μL HDAC 6, 20 μM substrate, 30 min at 37° C.; IC50 class.
Excerpt: as §1
A: Enzyme Activity Detection of Histone Deacetylase 6 (#50076, BPS Bioscience)
Acetyl on the substrate was removed by the HDAC 6, so that the substrate was activated, and the developing liquid added subsequently could act on the substrate to release the fluorescent group. The size of the fluorescence signal reflected the activity of the HDAC 6. The IC50 detection method for this enzyme was disclosed in Chuping Xu, Elisabetta Soragni Improved Histone Deacetylase Inhibitors as Therapeutics for the Neurdegenerative Disease Friedreich's Ataxia: A New Synthetic Route. The total reaction system (100 μL/well) contained 0.35 ng/μL of HDAC 6, 20 μM of the substrate and the compound in different concentrations. The reaction system was incubated for 30 min at 37° C., and the fluorescence signal was then measured. The inhibition effect of the compound was determined from the obtained data, a concentration response curve was obtained by using the inhibition effect and the concentration of the compound, and the value of IC50 was fitted according to a four-parameter model.
as §2

T1 sequence (O15379 whole entry): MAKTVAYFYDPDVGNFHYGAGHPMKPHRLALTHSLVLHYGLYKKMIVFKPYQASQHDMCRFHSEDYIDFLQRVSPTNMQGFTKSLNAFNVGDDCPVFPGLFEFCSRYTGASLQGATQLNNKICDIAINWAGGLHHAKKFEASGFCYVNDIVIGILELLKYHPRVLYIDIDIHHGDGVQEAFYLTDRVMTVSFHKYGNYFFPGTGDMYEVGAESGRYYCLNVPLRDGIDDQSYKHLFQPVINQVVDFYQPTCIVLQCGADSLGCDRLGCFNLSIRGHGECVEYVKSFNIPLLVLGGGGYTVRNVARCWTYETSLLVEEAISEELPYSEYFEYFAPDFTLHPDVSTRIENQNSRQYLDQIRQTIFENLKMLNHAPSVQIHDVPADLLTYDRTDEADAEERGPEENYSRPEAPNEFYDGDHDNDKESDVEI
T1 sequence (Q9Y618 395-489 partner limits assumed): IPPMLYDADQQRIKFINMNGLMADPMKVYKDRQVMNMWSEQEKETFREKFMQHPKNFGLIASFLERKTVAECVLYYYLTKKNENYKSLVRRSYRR

For `CN1CCN(c2ccc(-c3ccc(S(=O)(=O)N4CC=C(C(=O)NO)CC4)cc3)cc2)CC1` [Compound 29, N-hydroxyl-1-((4′-(4-methylpiperazinyl)-[1,1′-biphenyl]-4-yl)sulfonyl)-1,2,3,6-tetrahydropyridine-4-formamide], the IC50 on HDAC 3 and on HDAC 6 was below 100 nM each time.
